“And” between values parts separate entries of the source, which are not always exact repeats. Equal entries are not always repeated.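 In this assay, cells in 96-well plates receive the compound at five concentrations for 48 hours. Endpoints are linearly interpolated between the surrounding concentrations. Here, GI50 denotes the concentration required for 50% inhibition of growth. TGI: total growth inhibition.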
How the values were obtained:
Assay in all cases: NCI tumour cell line growth inhibition, 48 h
786-0 renal = system: 786-0 renal
BT-549 breast = system: BT-549 breast
EKVX NSCLC = system: EKVX NSCLC
HCC-2998 colon = system: HCC-2998 colon
KM12 colon = system: KM12 colon
NCI-H460 lung = system: NCI-H460 lung
OVCAR-5 ovarian = system: OVCAR-5 ovarian
SF-295 CNS = system: SF-295 CNS
SN12C renal = system: SN12C renal
UO-31 renal = system: UO-31 renal

SMILES: C[C@]12C3CC[C@@]4(CO)C[C@]3(CCC1[C@](C)(C(=O)O)CC[C@@H]2O)CC4=O (stereo not given in full)
- GI50 (786-0 renal): > 100 µM
- TGI (786-0 renal): > 100 µM
- GI50 (BT-549 breast): > 100 µM
- TGI (BT-549 breast): > 100 µM
- GI50 (EKVX NSCLC): > 100 µM
- TGI (EKVX NSCLC): > 100 µM
- GI50 (HCC-2998 colon): > 100 µM
- TGI (HCC-2998 colon): > 100 µM
- GI50 (KM12 colon): > 100 µM
- TGI (KM12 colon): > 100 µM
- GI50 (NCI-H460 lung): > 100 µM
- TGI (NCI-H460 lung): > 100 µM
- GI50 (OVCAR-5 ovarian): > 100 µM
- TGI (OVCAR-5 ovarian): > 100 µM
- GI50 (SF-295 CNS): > 100 µM
- TGI (SF-295 CNS): > 100 µM
- GI50 (SN12C renal): > 100 µM
- TGI (SN12C renal): > 100 µM
- GI50 (UO-31 renal): > 100 µM
- TGI (UO-31 renal): > 100 µM

SMILES: COc1ccc(-c2nnc(N3CCN(C(=O)CN4CCN(c5ccc(Cl)cc5)CC4)CC3)nc2-c2ccc(OC)cc2)cc1
- GI50 (786-0 renal): 17.5 µM
- TGI (786-0 renal): 69.8 µM
- GI50 (BT-549 breast): 8.88 µM
- TGI (BT-549 breast): 82.8 µM
- GI50 (EKVX NSCLC): > 100 µM
- TGI (EKVX NSCLC): > 100 µM
- GI50 (HCC-2998 colon): 56.8 µM
- TGI (HCC-2998 colon): > 100 µM
- GI50 (KM12 colon): 8.5 µM
- TGI (KM12 colon): > 100 µM
- GI50 (NCI-H460 lung): 14.4 µM
- TGI (NCI-H460 lung): > 100 µM
- GI50 (OVCAR-5 ovarian): > 100 µM
- TGI (OVCAR-5 ovarian): > 100 µM
- GI50 (SF-295 CNS): 49.4 µM
- TGI (SF-295 CNS): > 100 µM
- GI50 (SN12C renal): 17.8 µM
- TGI (SN12C renal): > 100 µM
- GI50 (UO-31 renal): 6.92 µM
- TGI (UO-31 renal): > 100 µM

SMILES: NC(Cc1ccnnc1)C(=O)O (stereo not given)
- TGI (786-0 renal): > 100 µM
- TGI (BT-549 breast): > 100 µM
- TGI (EKVX NSCLC): > 100 µM
- TGI (HCC-2998 colon): > 100 µM
- TGI (KM12 colon): > 100 µM
- TGI (NCI-H460 lung): > 100 µM
- TGI (OVCAR-5 ovarian): > 100 µM
- TGI (SF-295 CNS): > 100 µM
- TGI (SN12C renal): > 100 µM
- TGI (UO-31 renal): > 100 µM

SMILES: C(=C\c1nccc2c1[nH]c1ccccc12)/c1ccccc1
- GI50 (786-0 renal): 3.49 µM
- TGI (786-0 renal): 10.7 µM
- GI50 (BT-549 breast): 2.22 µM
- TGI (BT-549 breast): 10.2 µM
- GI50 (EKVX NSCLC): 1.72 µM
- TGI (EKVX NSCLC): 59.6 µM
- GI50 (HCC-2998 colon): 2.96 µM
- TGI (HCC-2998 colon): 9.43 µM
- GI50 (KM12 colon): 2.15 µM
- TGI (KM12 colon): 11.3 µM
- GI50 (NCI-H460 lung): 3.28 µM
- TGI (NCI-H460 lung): 13.7 µM
- GI50 (OVCAR-5 ovarian): 3.04 µM
- TGI (OVCAR-5 ovarian): > 100 µM
- GI50 (SF-295 CNS): 0.714 µM
- TGI (SF-295 CNS): 3.21 µM
- GI50 (SN12C renal): 3.83 µM
- TGI (SN12C renal): 76.7 µM
- GI50 (UO-31 renal): 1.58 µM
- TGI (UO-31 renal): 17.4 µM

SMILES: Cc1cc(C)cc(Nc2ccc([N+](=O)[O-])c(NCCN3CCOCC3)n2)c1
- TGI (786-0 renal): 18.8 µM
- TGI (BT-549 breast): > 100 µM
- TGI (EKVX NSCLC): > 100 µM
- GI50 (HCC-2998 colon): 0.00435 µM and 0.0287 µM
- TGI (HCC-2998 colon): > 100 µM
- GI50 (KM12 colon): 0.000947 µM
- TGI (KM12 colon): > 100 µM
- TGI (NCI-H460 lung): > 100 µM
- GI50 (OVCAR-5 ovarian): 0.0576 µM and 0.0361 µM
- TGI (OVCAR-5 ovarian): > 100 µM
- GI50 (SF-295 CNS): 0.000446 µM
- TGI (SF-295 CNS): 25.8 µM
- GI50 (SN12C renal): 0.0706 µM
- TGI (SN12C renal): > 100 µM
- TGI (UO-31 renal): > 100 µM

— PubChem BioAssay (NCI)
